Reference: ChEMBL document CHEMBL1147193, “New 5-substituted thiazolo[3,2-b][1,2,4]triazol-6-ones: synthesis and anticancer evaluation” (2007)

Assays:
Assay type in all cases: functional
[1] = system: TK-10; assay: Growth inhibition of human TK10 cells after 48 hrs by SRB protein assay; details: TK-10, 48 h
[2] = system: PC-3; assay: Growth inhibition of human PC3 cells after 48 hrs by SRB protein assay; details: PC-3, 48 h
[3] = system: RPMI-8226; assay: Growth inhibition of human RPMI8226 cells after 48 hrs by SRB protein assay; details: RPMI-8226, 48 h
[4] = system: MDA-MB-435; assay: Growth inhibition of human MDA-MB-435 cells after 48 hrs by SRB protein assay; details: MDA-MB-435, 48 h
[5] = system: SK-OV-3; assay: Growth inhibition of human SK-OV-3 cells after 48 hrs by SRB protein assay; details: SK-OV-3, 48 h
[6] = system: HCC 2998; assay: Growth inhibition of human HCC2998 cells after 48 hrs by SRB protein assay; details: HCC 2998, 48 h
[7] = system: ACHN; assay: Growth inhibition of human ACHN cells after 48 hrs by SRB protein assay
[8] = system: CCRF-CEM; assay: Growth inhibition of human CCRF-CEM cells after 48 hrs by SRB protein assay
[9] = system: SF-268; assay: Growth inhibition of human SF268 cells after 48 hrs by SRB protein assay; details: SF-268, 48 h
[10] = system: Hs-578T; assay: Growth inhibition of human HS578T cells after 48 hrs by SRB protein assay
[11] = system: UACC-257; assay: Growth inhibition of human UACC257 cells after 48 hrs by SRB protein assay; details: UACC-257, 48 h
[12] = system: HCT-15; assay: Growth inhibition of human HCT15 cells after 48 hrs by SRB protein assay; details: HCT-15, 48 h
[13] = system: SW-620; assay: Growth inhibition of human SW620 cells after 48 hrs by SRB protein assay; details: SW-620, 48 h
[14] = system: OVCAR-3; assay: Growth inhibition of human OVCAR-3 cells after 48 hrs by SRB protein assay; details: OVCAR-3, 48 h
[15] = system: MCF7; assay: Growth inhibition of human MCF7 cells after 48 hrs by SRB protein assay; details: MCF7, 48 h
[16] = system: SK-MEL-5; assay: Growth inhibition of human SK-MEL-5 cells after 48 hrs by SRB protein assay; details: SK-MEL-5, 48 h
[17] = system: A549; assay: Growth inhibition of human A549/ATCC cells after 48 hrs by SRB protein assay; details: A549, 48 h
[18] = system: NCI-H322M; assay: Growth inhibition of human NCI-H322M cells after 48 hrs by SRB protein assay
[19] = system: OVCAR-4; assay: Growth inhibition of human OVCAR4 cells after 48 hrs by SRB protein assay; details: OVCAR-4, 48 h
[20] = system: SN12C; assay: Growth inhibition of human SN12C cells after 48 hrs by SRB protein assay
[21] = system: LOX IMVI; assay: Growth inhibition of human LOX IMVI cells after 48 hrs by SRB protein assay
[22] = system: CAKI-1; assay: Growth inhibition of human CAKI1 cells after 48 hrs by SRB protein assay; details: CAKI-1, 48 h
[23] = system: M14; assay: Growth inhibition of human M14 cells after 48 hrs by SRB protein assay; details: M14, 48 h
[24] = system: IGROV-1; assay: Growth inhibition of human IGROV1 cells after 48 hrs by SRB protein assay; details: IGROV-1, 48 h
[25] = system: SF-268; assay: Anticancer activity against human SF268 cells assessed as growth of cells at 100 uM relative to untreated cells
[26] = system: NCI-H460; assay: Growth inhibition of human NCI-H460 cells after 48 hrs by SRB protein assay; details: NCI-H460, 48 h
[27] = Growth inhibition of human MDA-MB-231/ATCC cells after 48 hrs by SRB protein assay; details: MDA-MB-231, 48 h
[28] = system: U-251; assay: Growth inhibition of human U251 cells after 48 hrs by SRB protein assay; details: U-251, 48 h
[29] = system: UO-31; assay: Growth inhibition of human UO31 cells after 48 hrs by SRB protein assay; details: UO-31, 48 h
[30] = system: SK-MEL-28; assay: Growth inhibition of human SK-MEL-28 cells after 48 hrs by SRB protein assay; details: SK-MEL-28, 48 h
[31] = system: SF-295; assay: Growth inhibition of human SF295 cells after 48 hrs by SRB protein assay; details: SF-295, 48 h
[32] = system: NCI-H460; assay: Anticancer activity against human NCI-H460 cells assessed as growth of cells at 100 uM relative to untreated cells
[33] = system: KM12; assay: Growth inhibition of human KM12 cells after 48 hrs by SRB protein assay; details: KM12, 48 h
[34] = system: UACC-62; assay: Growth inhibition of human UACC62 cells after 48 hrs by SRB protein assay; details: UACC-62, 48 h
[35] = system: MCF7; assay: Anticancer activity against human MCF7 cells assessed as growth of cells at 100 uM relative to untreated cells
[36] = system: OVCAR-5; assay: Growth inhibition of human OVCAR5 cells after 48 hrs by SRB protein assay; details: OVCAR-5, 48 h
[37] = system: OVCAR-8; assay: Growth inhibition of human OVCAR8 cells after 48 hrs by SRB protein assay; details: OVCAR-8, 48 h
[38] = system: COLO 205; assay: Growth inhibition of human COLO205 cells after 48 hrs by SRB protein assay; details: COLO 205, 48 h
[39] = system: HOP-92; assay: Growth inhibition of human HOP92 cells after 48 hrs by SRB protein assay; details: HOP-92, 48 h
[40] = Growth inhibition of human MALME 3M cells after 48 hrs by SRB protein assay

Structure (SMILES): COc1ccc(NC(=O)CC2Sc3ncnn3C2=O)cc1 (configuration not stated)
- GI50 [1]: 16.6 µM
- TGI ([1]; read-out: Log TGI (converted)): 30.9 µM
- GI50 [2]: 23.4 µM
- TGI ([2]; read-out: Log TGI (converted)): 56.2 µM
- GI50 [3]: 25.1 µM
- TGI ([3]; read-out: Log TGI (converted)): 64.6 µM
- GI50 [4]: 26.3 µM
- TGI ([4]; read-out: Log TGI (converted)): 70.8 µM
- GI50 [5]: > 100 µM
- TGI ([5]; read-out: Log TGI (converted)): > 100 µM
- GI50 [6]: > 100 µM
- TGI ([6]; read-out: Log TGI (converted)): > 100 µM
- GI50 [7]: 21.4 µM
- TGI ([7]; read-out: Log TGI (converted)): 47.9 µM
- GI50 [8]: 20.4 µM
- TGI ([8]; read-out: Log TGI (converted)): 41.7 µM
- GI50 [9]: > 100 µM
- TGI ([9]; read-out: Log TGI (converted)): > 100 µM
- GI50 [10]: 25.7 µM
- TGI ([10]; read-out: Log TGI (converted)): 44.7 µM
- GI50 [11]: 20 µM
- TGI ([11]; read-out: Log TGI (converted)): 36.3 µM
- GI50 [12]: 24.5 µM
- TGI ([12]; read-out: Log TGI (converted)): 52.5 µM
- GI50 [13]: 37.2 µM
- TGI ([13]; read-out: Log TGI (converted)): > 100 µM
- GI50 [14]: 18.6 µM
- TGI ([14]; read-out: Log TGI (converted)): 38 µM
- GI50 [15]: 25.1 µM
- TGI ([15]; read-out: Log TGI (converted)): 64.6 µM
- GI50 [16]: 17.4 µM
- TGI ([16]; read-out: Log TGI (converted)): 35.5 µM
- GI50 [17]: 61.7 µM
- TGI ([17]; read-out: Log TGI (converted)): > 100 µM
- GI50 [18]: 97.7 µM
- TGI ([18]; read-out: Log TGI (converted)): > 100 µM
- GI50 [19]: 57.5 µM
- TGI ([19]; read-out: Log TGI (converted)): > 100 µM
- GI50 [20]: 25.1 µM
- TGI ([20]; read-out: Log TGI (converted)): 56.2 µM
- GI50 [21]: 21.9 µM
- TGI ([21]; read-out: Log TGI (converted)): 42.7 µM
- GI50 [22]: 18.6 µM
- TGI ([22]; read-out: Log TGI (converted)): 34.7 µM
- GI50 [23]: 18.2 µM
- TGI ([23]; read-out: Log TGI (converted)): 33.9 µM
- GI50 [24]: 67.6 µM
- TGI ([24]; read-out: Log TGI (converted)): > 100 µM
- Activity [25]: 107%
- GI50 [26]: > 100 µM
- TGI ([26]; read-out: Log TGI (converted)): > 100 µM
- GI50 [27]: 21.4 µM
- TGI ([27]; read-out: Log TGI (converted)): 38.9 µM
- GI50 [28]: 22.4 µM
- TGI ([28]; read-out: Log TGI (converted)): 44.7 µM
- GI50 [29]: 23.4 µM
- TGI ([29]; read-out: Log TGI (converted)): 53.7 µM
- GI50 [30]: 26.9 µM
- TGI ([30]; read-out: Log TGI (converted)): > 57.5 µM
- GI50 [31]: > 100 µM
- TGI ([31]; read-out: Log TGI (converted)): > 100 µM
- Activity [32]: 0%
- GI50 [33]: > 100 µM
- TGI ([33]; read-out: Log TGI (converted)): > 100 µM
- GI50 [34]: > 100 µM
- TGI ([34]; read-out: Log TGI (converted)): > 100 µM
- Activity [35]: 0%
- GI50 [36]: 18.2 µM
- TGI ([36]; read-out: Log TGI (converted)): 32.4 µM
- GI50 [37]: 22.4 µM
- TGI ([37]; read-out: Log TGI (converted)): 46.8 µM
- GI50 [38]: 30.2 µM
- TGI ([38]; read-out: Log TGI (converted)): 79.4 µM
- GI50 [39]: 21.9 µM
- TGI ([39]; read-out: Log TGI (converted)): 49 µM
- GI50 [40]: 17.4 µM
- TGI ([40]; read-out: Log TGI (converted)): 33.9 µM
